Literature values in patent publication US9557341B2, “Risk assessment for cutaneous adverse drug reactions from antiretroviral agent” (priority 2008, dated 2017).
Where two headings read alike, the source gives them in different places.

Settings: cited from earlier work; for hypersensitivity reaction incidence: mix French population

Compound | rate of drug rash (human, in vivo) [%] | rate of hepatitis (human, in vivo) [%] | odds ratios, hypersensitivity and HLA-B*5701 (Caucasians) | rate of unwarranted interruptions of therapy (after HLA-B*5701 screening) [%] | rate of unwarranted interruptions of therapy (before HLA-B*5701 screening) [%] | negative predictive value of HLA-B*5701 for hypersensitivity (every ethnic studies) | hypersensitivity syndrome, cases (human, in vivo) | hypersensitivity reaction incidence (after HLA-B*5701 screening) [%] | hypersensitivity reaction incidence (before HLA-B*5701 screening) [%]
O=C1Nc2ccc(Cl)cc2[C@@](C#CC2CC2)(C(F)(F)F)O1 [EFV, efavirenz] | 11 | 9 |  |  |  |  |  |  | 
Nc1nc(NC2CC2)c2ncn([C@H]3C=C[C@@H](CO)C3)c2n1 [abacavir] |  |  | 117 | 0.73 | 10.2 | more than 90% | about 5% | 0 | 12
